Drawing on patent publication EP0067612A1, “Penicillin derivatives” (BEECHAM GROUP PLC, priority 1981, dated 1982), this text covers MIC for 2 molecules.

A word on the MIC: it is the lowest concentration that inhibits growth of the organism.

What all share (assay): Antibacterial activity, MIC (agar)
Holding throughout (format): cell-based

One experiment concerns S. aureus Oxford. The settings on record: Staphylococcus aureus. The source says: (§1) The antibacterial activities of compounds of the present invention (MIC µg/ml)
The next experiment concerns P. mirabilis 889. The settings on record: Proteus mirabilis.
From the text: as §1

For a further experiment, the system named is E. coli ESS. The following applies: Escherichia coli.
From the text: as §1

Another experiment has as its system E. coli JT 425. The settings on record: Escherichia coli, JT425.
From the text: as §1

A further experiment concerns S. faecalis I. The settings on record: Enterococcus faecalis.
From the text: as §1

Another experiment relates to P. mirabilis C 977. The following applies: Proteus mirabilis, C977.
From the text: as §1

A further experiment concerns K. aerogenes A. The settings on record: Klebsiella aerogenes.
From the text: as §1

The next experiment relates to E. coli JT 4. The settings on record: Escherichia coli, JT4.
From the text: as §1

Another experiment has as its system P. rettgeri. The settings on record: Providencia rettgeri.
From the text: as §1

Another experiment relates to E. cloacae N1. The following applies: Enterobacter cloacae.
From the text: as §1

Another experiment relates to E. coli NCTC 10418. The settings on record: Escherichia coli, NCTC10418.
From the text: as §1

In a further experiment the test system is S. aureus Russell. The settings on record: Staphylococcus aureus.
From the text: as §1

Experiment [1] relates to Ps. aeruginosa NCTC 10662. The following applies: Pseudomonas aeruginosa.
From the text: as §1

The next experiment deals with Ps. aeruginosa Dalgleish. The following applies: Pseudomonas aeruginosa, Ps. aeruginosa Dalgleish 10^-2.
From the text: as §1

The test system of the next experiment is N. catarrhalis 1502.
From the text: as §1

The subject of another experiment is S. pyogenes CN 10. The settings on record: Streptococcus pyogenes, CN10.
From the text: as §1

A further experiment relates to S. marcescens US 32. The settings on record: Serratia marcescens, US32.
From the text: as §1

[2] abbreviates: NCTC10662, Ps. aeruginosa NCTC 10662.
[3] abbreviates: NCTC10662, Ps. aeruginosa NCTC 10662 10^-2.

Counter-ions that a name gives are not always drawn.

On to `NS(=O)(=O)c1ccc(Nc2ncc(NC(=O)N[C@@H](C(=O)N[C@@H]3C(=O)N4[C@@H](C(=O)O)CS[C@H]34)c3ccc(O)cc3)c(O)n2)cc1` [Example 4, 6β-[D,2-2-(4-Aminosulphonylanilino)-4-hydroxypyrimidyl-5-aminocarbonylamino}-2-(4-hydroxyphenyl)]acetamido-bisnorpenicillanic acid, sodium salt], for which the MIC is 2.5 µg/mL in the experiment on S. aureus Oxford; more than 100 µg/mL against P. mirabilis 889; 0.05 µg/mL with E. coli ESS; 2.5 µg/mL in the experiment on E. coli JT 425; 25 µg/mL against S. faecalis I; 2.5 µg/mL with P. mirabilis C 977. Further, the MIC worked out at 0.25 µg/mL in the experiment on K. aerogenes A; 100 µg/mL against E. coli JT 4; 2.5 µg/mL against P. rettgeri; 2.5 µg/mL with E. cloacae N1; 0.25 µg/mL in the experiment with E. coli NCTC 10418; 25 µg/mL in the experiment with S. aureus Russell. Besides, the minimum inhibitory concentration (MIC) turned out to be 2.5 µg/mL in experiment [1] (setting [2]); 0.5 µg/mL in [1] (setting [3]); 25 µg/mL with Ps. aeruginosa Dalgleish; 0.05 µg/mL in the experiment on N. catarrhalis 1502; 0.1 µg/mL with S. pyogenes CN 10; 1 µg/mL with S. marcescens US 32.
For the molecule `NS(=O)(=O)c1ccc(Nc2ncc(NC(=O)N[C@@H](C(=O)N[C@@H]3C(=O)N4[C@@H](C(=O)O)CS[C@H]34)c3ccccc3)c(O)n2)cc1` [Example 3, 6β-[D,2-{2-(4-Aminosulphonylanilino)-4-hvdroxypyrimidyl-5-aminocarbonylamino}-2-phenyl]acetamidobisnor penicillanic acid, sodium salt], the MIC in the experiment on S. aureus Oxford was 1 µg/mL; against P. mirabilis 889 it was more than 100 µg/mL; in the experiment with E. coli ESS, 0.05 µg/mL; in the experiment on E. coli JT 425, 5 µg/mL; against S. faecalis I, 25 µg/mL; against P. mirabilis C 977 it was 0.2 µg/mL. Further, the minimum inhibitory concentration (MIC) is 0.2 µg/mL against K. aerogenes A; more than 100 µg/mL with E. coli JT 4; 1 µg/mL in the experiment on P. rettgeri; 1 µg/mL against E. cloacae N1; 0.5 µg/mL against E. coli NCTC 10418; 50 µg/mL with S. aureus Russell. Besides, the MIC was found to be 5 µg/mL in experiment [1] (setting [2]); 2.5 µg/mL in [1] (setting [3]); 50 µg/mL with Ps. aeruginosa Dalgleish; 0.05 µg/mL with N. catarrhalis 1502; 0.2 µg/mL against S. pyogenes CN 10; 2.5 µg/mL against S. marcescens US 32.
